Assay results published in patent publication US9833466B2, “Treatment of leukemia with histone deacetylase inhibitors” (Acetylon Pharmaceuticals Inc., priority 2014, dated 2017).

Key:
[1] = test system: HDAC1, HDAC2, HDAC3 and HDAC6; test: HDAC selectivity of the inhibitor panel; format: biochemical; conditions: HDAC isoform(s) the inhibitor is selective for
Procedure: Compounds for testing are diluted in DMSO to 50 fold the final concentration and a ten point three fold dilution series is made. The compounds are diluted in assay buffer (50 mM HEPES, pH 7.4, 100 mM Kill, 0.001% Tween-20, 0.05% BASE, 20 μM TEC) to 6 fold their final concentration. The HDAC enzymes (purchased from BPS Biosciences) are diluted to 1.5 fold their final concentration in assay buffer. The dipeptide substrate and trypsin at 0.05 μM final concentration are diluted in assay buffer at 6 fold their final concentration. The final enzyme concentrations to use in these assays are 3.3 ng/ml (HDAC1), 0.2 ng/ml (HDAC2), 0.08 ng/ml (HDAC3) and 2 ng/ml (HDAC6). The final substrate concentrations to use are 16 μM (HDAC1), 10 μM (HDAC2), 17 μM (HDAC3) and 14 μM (HDAC6). Five μ1 of compound and 20 μl of enzyme are added to wells of a black, opaque 384 well plate in duplicate. Enzyme and compound are incubated together at room temperature for 10 min. Five μ1 of substrate is added to each well, the plate is shaken for 60 seconds and placed into a Victor 2 microliter plate reader. The development of fluorescence is monitored for 60 min. and the linear rate of the reaction is calculated. The IC50 is determined using Graph Pad Prism by a four parameter curve fit.
The following HDAC inhibitors were used to evaluate the relationship between HDAC selectivity and the viability of AML cell lines upon exposure to the HDAC inhibitor: […]

[2] = test system: HL-60, NB4, MV4-11, Kasumi-1, THP-1, and MOLM-13; test: Single agent activity on viability in AML cell lines; format: cell-based; conditions: for viability IC50 relative to HDAC selective range: 72 hours, six AML cell lines
Procedure: FIGS. 3A-D show the single agent activity on viability in AML cell lines. Briefly, each of the following cell lines: HL-60, THP-1, MV-4-11, Kasumi-1, NB4, and MOLM-13 were exposed to increasing concentrations of either Compound B (FIG. 3A), Compound A (FIG. 3B), Compound E (FIG. 3C), or azacitidine (FIG. 3D) to determine their response to drug treatment. […] The panel of cell lines was also treated with azacitidine to measure their sensitivity.
FIGS. 8A-F show the single agent activity on viability in AML cell lines. […] Viability was calculated as a percentage of control (DMSO treated cells). Growth inhibition curves were generated using GraphPad Prism 6.
FIG. 17. […] (B-D) MV4-11 cells were treated with indicated concentrations of compounds. (B) Surface levels of myeloid differentiation marker CD11b were determined by FACS at 72 h post-treatment. […] (C) Cell cycle was assessed by flow cytometry after incorporation of EdU and staining with Far Red at 72 h post-treatment. The distribution of cells among G0/G1 phase, G2/M phase, S phase and subG1 phase was determined. […] (D) Apoptosis was assessed by flow cytometry via measuring Annexin V binding and cellular permeability to propidium iodide at 96 h post-treatment. The relative fraction of cells that were live, in early apoptosis, in late apoptosis or dead was then determined.

MV4-11 [3] = test: Surface CD11b by FACS in MV4-11; format: cell-based; conditions: single agent, 72 h
Procedure: (§1) The distribution of cells among G0/G1 phase, G2/M phase, S phase and subG1 phase was determined. […] The relative fraction of cells that were live, in early apoptosis, in late apoptosis, or dead was then determined.
(§2) MV4-11 cells were treated with Compound E or with Compound A or with Compound B as single agent or in combination with azacitidine at indicated doses. FIGS. 12A, 12C, and 12E show surface levels of CD11b determined by FACS at 72 h post-treatment. FIGS. 12B, 12D, and 12F show assessment of apoptosis by FACS (as in, e.g., FIG. 9C) at 96 h post-treatment.
(§3) FIG. 17. […] (A) Indicated AML cell lines were exposed to increasing concentrations of Compound J to confirm their sensitivity to HDAC1/2 inhibition. (B-D) MV4-11 cells were treated with indicated concentrations of compounds. (B) Surface levels of myeloid differentiation marker CD11b were determined by FACS at 72 h post-treatment. […] (C) Cell cycle was assessed by flow cytometry after incorporation of EdU and staining with Far Red at 72 h post-treatment. The distribution of cells among G0/G1 phase, G2/M phase, S phase and subG1 phase was determined. […] (D) Apoptosis was assessed by flow cytometry via measuring Annexin V binding and cellular permeability to propidium iodide at 96 h post-treatment. The relative fraction of cells that were live, in early apoptosis, in late apoptosis or dead was then determined.

MV4-11 [4] = test: Apoptosis by Annexin V / propidium iodide flow cytometry in MV4-11; format: cell-based; conditions: single agent, 96 h
Procedure: as §1, §2, §3

Kasumi-1 [5] = test: Kasumi-1 cell cycle by propidium iodide staining (sub-G1); format: cell-based; conditions: 72 hours, increasing concentrations
Procedure: HDAC inhibition causing AML cell death (apoptosis) was measured by staining the AML cells with propidium iodide after the cells were exposed to different concentrations of the HDAC inhibitors. Four distinct cell populations, G1, S, G2, and sub-G1, were separated and quantified based on their propidium iodide staining patterns. The sub-G1 cells are those dying or dead cells, and the percentage of this population was a reflection of the tested compound cytotoxicity.

MV4-11 [6] = test: Cell cycle by flow cytometry (EdU, Far Red) in MV4-11; format: cell-based; conditions: single agent, 72 h
Procedure: as §1, §3

AML1/ETO fusion protein = AML1/ETO fusion protein Western blot in Kasumi-1 cells; format: cell-based; conditions: 24 hours
Procedure: One type of AML has a signature chromosome translocation t(8:21) and therefore expression of a unique fusion protein AML1/ETO. […] In this study, Kasumi-1 cells were exposed to different concentrations of the HDAC inhibitor Compound A, or another HDAC1/2/6 selective inhibitor Compound G (data not shown), for 24 hours. The whole cell lysates were separated by SDS-PAGE (SDS-polyacrylamide gel electrophoresis) and transferred to a membrane (Western blot). The AML1/ETO fusion protein was detected on the membrane using an AML1 specific antibody.

[7] = test system: bone marrow samples derived from AML patients; test: Primary AML sample colony formation assay; format: cell-based; conditions: Homo sapiens, 336 h; 6 bone marrow samples from AML patients; 14 days; single agent; read-out: median IC50, colony formation
Procedure: (A) 6 bone marrow samples derived from AML patients were cultured in methylcellulose-based medium and treated with increasing concentrations of Compound A, Compound J and azacitidine for 14 days when the colonies reach reasonable size. IC50 values for each drug are plotted. […] IC50 values were plotted for each patient sample.

[8] = test system: AML blast freshly derived from bone marrow of AML patients; test: Ex vivo proliferation of AML blast freshly derived from bone marrow; format: cell-based; conditions: Homo sapiens; 5 bone marrow samples from AML patients; flow cytometry at 96 h; single agent; read-out: median IC50, live AML cells
Procedure: (A-B), 5 bone marrow samples derived from AML patients were treated with increasing concentrations of azacitidine, Compound A and Compound J and live AML cells were quantified by flow cytometry at 96 h. IC50 values (A) and AUC values (B) were plotted. […] The relative potency of the three drugs are Compound J>azacitidine>Compound A, consistent with the result in FIG. 2. (C) 5 bone marrow samples derived from AML patients were treated with increasing doses of azacitidine with Compound J and live AML cells were quantified by flow cytometry at 96 h. The combination index (Comb IDX) were calculated and median Comb IDX values were plotted.

NB4 = test: Surface CD11b by FACS in NB4; format: cell-based; conditions: single agent, 72 hours
Procedure: (§4) Briefly, the AML cell lines HL-60 (FIGS. 4A and 4D), Kasumi-1 (FIGS. 4B and 4E) and NB4 (FIGS. 4C and 4F) were treated with the indicated concentrations of compounds. In FIGS. 4A-C, surface levels of myeloid differentiation marker CD11b were determined by FACS at 72 hours post-treatment. […] In FIGS. 4D-F, apoptosis was assessed by flow cytometry by measuring Annexin V binding and cellular permeability to propidium iodide at 96 hours post-treatment. The relative fraction of cells that were alive, in early apoptosis, in late apoptosis, or dead was then determined.
FIGS. 7A-F show the combination of HDAC inhibitors and azacitidine in the NB4 cell line. Briefly, cells were treated with DMSO, Compound B, Compound A, or Compound E as single agent or in combination with azacitidine at the indicated concentrations. Surface levels of CD11b were determined 72 hours post-treatment (FIGS. 7A, 7C, 7E), and apoptosis was assessed 96 hours post-treatment (FIGS. 7B, 7D, 7F).

HL-60 = test: Surface CD11b by FACS in HL-60; format: cell-based; conditions: single agent, 72 hours
Procedure: as §4
FIGS. 5A-F show the combination of HDAC inhibitors and azacitidine in the HL-60 cell line. Briefly, cells were treated with DMSO, Compound B, Compound A, or Compound E as a single agent or in combination with azacitidine for 96 hours. Surface levels of CD11b (FIGS. 5A, 5C, 5E) and apoptosis (FIGS. 5B, 5D, 5F) was assessed by flow cytometry, as in FIG. 4.

GATA2 = GATA2 expression in MV4-11 AML cell line; format: cell-based; conditions: single agent at 1 uM, 48 h and 72 h
Procedure: FIG. 16. […] (A-B) MV4-11 cells were plated at 2×10^5 cells/ml at indicated doses for 48 h and 72 h. RNA was prepared and analyzed for GATA2 and GAPDH as internal control.

Kasumi-1 [9] = test: Surface CD11b by FACS in Kasumi-1; format: cell-based; conditions: single agent, 72 hours
Procedure: as §4
Briefly, cells were treated with DMSO, Compound B, Compound A, or Compound E as a single agent or in combination with azacitidine at the indicated concentrations. Surface levels of CD11b were determined 72 hours post-treatment (FIGS. 6A, 6C, 6E), and apoptosis was assessed 96 hours post-treatment (FIGS. 6B, 6D, 6F).

HL-60, Kasumi-1 and NB4 = test: Apoptosis by Annexin V / propidium iodide flow cytometry in three AML cell lines; format: cell-based; conditions: single agent; 96 hours; HL-60, Kasumi-1, NB4
Procedure: as §4
FIGS. 10A-F show the treatment of the following AML cell lines: Kasumi-1 (FIGS. 10A and 10B), HL-60 (FIGS. 10C and 10D) and NB4 (FIGS. 10E and 10F), with indicated doses of compounds. FIGS. 10A, 10C, and 10E show surface levels of myeloid differentiation marker CD11b determined by FACS at 72 h post-treatment. […] FIGS. 10B, 10D, and 10F show the assessment of apoptosis by FACS (see, e.g., FIG. 9C).

MV4-11 cells = test: MV4-11 tumor growth and survival in Ncr nu/nu mice; format: in vivo; conditions: single agent azacitidine 5 mg/kg IV q3d; MV4-11 in Ncr nu/nu mice
Procedure: Ncr nu/nu mice implanted with MV4-11 cells were treated with vehicle, azacitidine (5 mg/kg IV q3d), or azacitidine (5 mg/kg IV q3d) plus Compound A (50 mg/kg IP 5/2/5/2/5/2/5) for up to 4 weeks. (A) Tumor volume was measured twice weekly and the mean tumor volume±SD is plotted. (B) Fold tumor volume change on day 19 relative to day 1 is plotted. (C) Survival curve was plotted.

viability IC50 relative to HDAC selective range [2]	Structure (SMILES)	Selectivity [1]	percentage of CD11b positive cells (MV4-11 [3])	apoptosis relative to control cells (MV4-11 [4])	cell cycle arrest (MV4-11 [6])	IC50 [7]	IC50 [8]	also measured
beyond its selective range	O=C(NO)c1cnc(NC2(c3cccc(F)c3)CCCCC2)nc1 [Compound C, 2-((1-(3-fluorophenyl)cyclohexyl)amino)-N-hydroxypyrimidine-5-carboxamide]	HDAC6	no effect on CD11b positive cells					
beyond its selective range	Nc1cc(F)ccc1NC(=O)c1cnc2c(C3CC3)c(N3CCNCC3)ccc2c1 [Compound H]	HDAC3	increased the percentage of CD11b positive cells					
	Nc1ccc(-c2cccs2)cc1NC(=O)c1ccc2nc(N3CCNCC3)ccc2c1 [Compound J, N-(2-amino-5-(thiophen-2-yl)phenyl)-2-(piperazin-1-yl)quinoline-6-carboxamide]		highest potency increasing percentage of CD11b positive cells	increase in apoptosis relative to control cells	induced cell cycle arrest as well as apoptosis	2.95 µM	0.6 µM	cell viability ([2]; AML cell lines): reduces cell viability
	Nc1ncn([C@@H]2O[C@H](CO)[C@@H](O)[C@H]2O)c(=O)n1 [azacitidine, 4-amino-1-β-D-ribofuranosyl-S-triazin-2(1H)-one, reference compound]					8.11 µM	2.1 µM	CD11b positive cells (NB4): minimal effects; CD11b positive cells (HL-60): increased CD11b positive cells; GATA2 level (GATA2): induced GATA2 level; CD11b positive cells (Kasumi-1 [9]): increased CD11b positive cells; apoptosis relative to control cells (HL-60, Kasumi-1 and NB4): increase in apoptosis relative to control cells; survival (MV4-11 cells): increased survival; tumor growth (MV4-11 cells): reduced tumor growth

Structure (SMILES)	viability IC50 relative to HDAC selective range [2]	Selectivity [1]	percentage of CD11b positive cells (MV4-11 [3])	apoptosis relative to control cells (MV4-11 [4])	cell cycle arrest (MV4-11 [6])	IC50 [7]	IC50 [8]	also measured
O=C(NO)c1cnc(NC2(c3ccccc3)CCN(C(=O)Nc3ccccc3)CC2)nc1 [Compound G, N-hydroxy-2-((4-phenyl-1-(phenylcarbamoyl)piperidin-4-yl)amino)pyrimidine-5-carboxamide]	has some inhibitory effects on HDAC1/2 at their IC50 values	HDAC6 (1/2)	increased the percentage of CD11b positive cells	increase in apoptosis relative to control cells	induced cell cycle arrest			sub-G1 cells (dying or dead cells) (Kasumi-1 [5]): Increased amount of sub-G1 cells; amount of AML1/ETO fusion protein (AML1/ETO fusion protein): decrease the amount of this fusion protein in a concentration dependent manner
